Reference: ChEMBL document CHEMBL2434948, “Discovery, synthesis, and characterization of an orally bioavailable, brain penetrant inhibitor of mixed lineage kinase 3” (J Med Chem, 2013)
pIC50: −log10 of the molar value. Activity calls are given as the source filed them. No cut-off for these calls is given here.

Legend:
[1] = target: T1, Tyrosine-protein kinase ABL1 (Homo sapiens, UniProt P00519); assay: Inhibition of human wild type ABL1 at 1 uM by qPCR analysis relative to control
[2] = target: Mitogen-activated protein kinase 14 (Homo sapiens, UniProt Q16539); assay: Inhibition of human wild type p38alpha at 1 uM by qPCR analysis
[3] = target: T1, Tyrosine-protein kinase ABL1; assay: Inhibition of human ABL1 mutant at 1 uM by qPCR analysis
[4] = target: Epidermal growth factor receptor (Homo sapiens) (UniProt P00533); assay: Inhibition of human wild type EGFR at 1 uM by qPCR analysis
[5] = target: Mitogen-activated protein kinase 11 (Homo sapiens) (UniProt Q15759); assay: Inhibition of human wild type p38b at 1 uM by qPCR analysis
Sequence of Mitogen-activated protein kinase 11 (Homo sapiens) (Q15759 whole entry): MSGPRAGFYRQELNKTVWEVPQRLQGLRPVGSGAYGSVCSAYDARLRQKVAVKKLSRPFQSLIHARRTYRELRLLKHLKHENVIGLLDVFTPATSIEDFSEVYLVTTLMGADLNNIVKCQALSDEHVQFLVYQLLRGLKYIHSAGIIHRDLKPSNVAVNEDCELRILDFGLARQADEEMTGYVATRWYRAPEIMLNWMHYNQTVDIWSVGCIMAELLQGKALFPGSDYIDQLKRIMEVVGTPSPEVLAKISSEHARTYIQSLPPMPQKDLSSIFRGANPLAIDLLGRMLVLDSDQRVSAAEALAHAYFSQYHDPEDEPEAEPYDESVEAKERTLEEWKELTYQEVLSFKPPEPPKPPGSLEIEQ

[6] = target: Serine/threonine-protein kinase Sgk1 (Homo sapiens) (UniProt O00141); assay: Inhibition of human wild type SGK1 at 1 uM by qPCR analysis relative to control
[7] = target: Maternal embryonic leucine zipper kinase (Homo sapiens) (UniProt Q14680); assay: Inhibition of human wild type MELK at 1 uM by qPCR analysis relative to control
Sequence of Maternal embryonic leucine zipper kinase (Homo sapiens) (Q14680 whole entry, looked up): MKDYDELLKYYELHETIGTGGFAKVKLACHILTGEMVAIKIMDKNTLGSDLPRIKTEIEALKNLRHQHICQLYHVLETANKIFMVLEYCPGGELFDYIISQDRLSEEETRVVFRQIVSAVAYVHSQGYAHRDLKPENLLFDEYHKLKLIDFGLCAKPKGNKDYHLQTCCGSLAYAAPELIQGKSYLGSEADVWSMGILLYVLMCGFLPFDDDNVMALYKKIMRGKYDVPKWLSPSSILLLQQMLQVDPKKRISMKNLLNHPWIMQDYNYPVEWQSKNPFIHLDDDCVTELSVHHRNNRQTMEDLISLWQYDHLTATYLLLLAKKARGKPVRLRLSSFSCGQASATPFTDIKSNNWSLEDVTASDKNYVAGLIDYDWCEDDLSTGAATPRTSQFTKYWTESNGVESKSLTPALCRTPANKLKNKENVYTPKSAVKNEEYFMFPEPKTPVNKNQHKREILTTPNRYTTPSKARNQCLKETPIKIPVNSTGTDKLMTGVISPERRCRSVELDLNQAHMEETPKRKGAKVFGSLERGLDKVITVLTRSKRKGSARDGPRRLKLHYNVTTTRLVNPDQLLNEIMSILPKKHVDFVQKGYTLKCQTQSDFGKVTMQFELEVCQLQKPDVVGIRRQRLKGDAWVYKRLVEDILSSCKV

[8] = target: Cyclin-dependent kinase-like 2 (Homo sapiens) (UniProt Q92772); assay: Inhibition of human wild type CDKL2 at 1 uM by qPCR analysis relative to control
Sequence of Cyclin-dependent kinase-like 2 (Homo sapiens) (Q92772 whole entry): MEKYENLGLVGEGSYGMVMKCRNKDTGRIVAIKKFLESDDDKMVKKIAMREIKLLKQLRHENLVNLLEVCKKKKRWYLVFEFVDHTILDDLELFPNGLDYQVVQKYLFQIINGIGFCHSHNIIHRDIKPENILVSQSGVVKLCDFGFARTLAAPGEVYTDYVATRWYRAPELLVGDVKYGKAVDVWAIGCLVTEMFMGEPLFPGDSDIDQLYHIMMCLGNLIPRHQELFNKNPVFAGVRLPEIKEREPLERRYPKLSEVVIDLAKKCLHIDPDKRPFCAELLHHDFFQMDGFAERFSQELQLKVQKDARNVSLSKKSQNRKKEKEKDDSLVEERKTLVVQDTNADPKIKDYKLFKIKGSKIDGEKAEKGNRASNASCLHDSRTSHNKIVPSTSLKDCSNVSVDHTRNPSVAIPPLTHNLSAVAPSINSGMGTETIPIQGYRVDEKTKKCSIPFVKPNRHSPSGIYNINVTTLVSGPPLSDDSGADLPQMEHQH

[9] = target: T2, Mitogen-activated protein kinase 8 (Homo sapiens, UniProt P45983)
T2 sequence (P45983 whole entry): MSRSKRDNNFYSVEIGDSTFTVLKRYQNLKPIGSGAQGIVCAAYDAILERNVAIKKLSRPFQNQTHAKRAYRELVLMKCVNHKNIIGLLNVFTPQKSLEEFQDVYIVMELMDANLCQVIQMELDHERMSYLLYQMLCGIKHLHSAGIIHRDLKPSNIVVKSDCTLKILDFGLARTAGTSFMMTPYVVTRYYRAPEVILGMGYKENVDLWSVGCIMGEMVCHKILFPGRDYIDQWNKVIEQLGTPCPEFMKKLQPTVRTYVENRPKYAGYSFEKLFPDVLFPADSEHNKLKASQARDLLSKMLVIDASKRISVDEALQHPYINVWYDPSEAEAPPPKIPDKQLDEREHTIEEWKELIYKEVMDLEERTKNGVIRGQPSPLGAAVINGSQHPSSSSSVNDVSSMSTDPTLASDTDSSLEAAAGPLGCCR
Description: Inhibition of wild type human JNK1 by high throughput [33P]-ATP radiolabeled assay

[10] = target: T2, Mitogen-activated protein kinase 8; remark: listed apart in the source
Description: Inhibition of wild type human wild type JNK1 by qPCR analysis

[11] = target: BDNF/NT-3 growth factors receptor (Homo sapiens, UniProt Q16620)
Description: Inhibition of wild type human TRKB by high throughput ATP-[33P] radiolabeled assay

[12] = target: High affinity nerve growth factor receptor (Homo sapiens, UniProt P04629)
Description: Inhibition of wild type human TRKA by high throughput ATP-[33P] radiolabeled assay

[13] = target: Tyrosine-protein kinase SYK (Homo sapiens, UniProt P43405)
Description: Inhibition of wild type human SYK by high throughput ATP-[33P] radiolabeled assay

[14] = target: Mitogen-activated protein kinase kinase kinase 2 (Homo sapiens, UniProt Q9Y2U5)
Description: Inhibition of wild type human MEKK2 by high throughput ATP-[33P] radiolabeled assay

[15] = target: Hepatocyte growth factor receptor (Homo sapiens, UniProt P08581)
Sequence of Hepatocyte growth factor receptor (P08581 whole entry): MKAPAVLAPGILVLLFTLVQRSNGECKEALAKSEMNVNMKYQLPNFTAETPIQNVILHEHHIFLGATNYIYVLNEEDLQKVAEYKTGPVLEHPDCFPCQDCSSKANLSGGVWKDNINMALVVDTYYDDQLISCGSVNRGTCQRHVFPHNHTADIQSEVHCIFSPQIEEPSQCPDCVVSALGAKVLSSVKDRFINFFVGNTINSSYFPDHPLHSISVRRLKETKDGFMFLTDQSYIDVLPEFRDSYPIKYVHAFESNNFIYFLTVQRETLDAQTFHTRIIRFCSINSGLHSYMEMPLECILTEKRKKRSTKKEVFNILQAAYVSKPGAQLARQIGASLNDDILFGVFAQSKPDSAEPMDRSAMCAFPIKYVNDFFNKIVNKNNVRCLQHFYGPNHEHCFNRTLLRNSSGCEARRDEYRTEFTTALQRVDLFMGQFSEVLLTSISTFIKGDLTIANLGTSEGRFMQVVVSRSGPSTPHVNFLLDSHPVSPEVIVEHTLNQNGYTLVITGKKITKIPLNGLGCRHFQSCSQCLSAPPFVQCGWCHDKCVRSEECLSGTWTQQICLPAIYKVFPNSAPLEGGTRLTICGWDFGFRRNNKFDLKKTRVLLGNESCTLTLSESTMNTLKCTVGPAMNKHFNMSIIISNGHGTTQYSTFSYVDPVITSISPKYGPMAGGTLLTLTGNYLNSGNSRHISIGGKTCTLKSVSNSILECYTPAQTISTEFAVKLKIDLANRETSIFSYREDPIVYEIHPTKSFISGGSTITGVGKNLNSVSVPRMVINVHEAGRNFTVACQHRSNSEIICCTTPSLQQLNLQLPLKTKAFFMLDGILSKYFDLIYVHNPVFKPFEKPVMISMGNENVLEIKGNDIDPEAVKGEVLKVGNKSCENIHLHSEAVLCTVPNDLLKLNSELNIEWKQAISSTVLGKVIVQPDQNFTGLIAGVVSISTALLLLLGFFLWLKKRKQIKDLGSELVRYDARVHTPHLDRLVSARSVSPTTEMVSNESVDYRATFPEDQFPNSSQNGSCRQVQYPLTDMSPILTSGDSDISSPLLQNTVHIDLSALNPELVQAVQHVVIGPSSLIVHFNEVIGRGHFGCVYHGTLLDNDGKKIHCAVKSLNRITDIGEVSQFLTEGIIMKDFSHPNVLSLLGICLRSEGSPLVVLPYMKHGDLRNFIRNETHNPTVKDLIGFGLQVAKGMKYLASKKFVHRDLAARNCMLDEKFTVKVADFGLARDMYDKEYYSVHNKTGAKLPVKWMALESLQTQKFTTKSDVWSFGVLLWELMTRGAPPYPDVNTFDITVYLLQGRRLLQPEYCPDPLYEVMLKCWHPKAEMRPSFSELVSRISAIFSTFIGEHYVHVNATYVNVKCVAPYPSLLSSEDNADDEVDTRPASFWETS
Description: Inhibition of wild type human c-MET by high throughput ATP-[33P] radiolabeled assay

Aurora kinase A = Aurora kinase A (Homo sapiens, UniProt O14965)
Sequence of Aurora kinase A (O14965 whole entry): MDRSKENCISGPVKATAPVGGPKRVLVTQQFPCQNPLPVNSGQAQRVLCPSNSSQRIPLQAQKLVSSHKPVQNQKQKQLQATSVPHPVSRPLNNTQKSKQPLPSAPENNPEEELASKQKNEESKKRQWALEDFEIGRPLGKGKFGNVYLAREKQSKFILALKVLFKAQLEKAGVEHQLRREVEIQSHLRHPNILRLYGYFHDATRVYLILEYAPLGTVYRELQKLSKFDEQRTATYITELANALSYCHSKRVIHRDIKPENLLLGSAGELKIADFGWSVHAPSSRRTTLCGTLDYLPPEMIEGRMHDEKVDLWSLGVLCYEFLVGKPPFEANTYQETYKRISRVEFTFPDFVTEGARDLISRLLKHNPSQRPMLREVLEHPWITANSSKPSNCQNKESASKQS
Description: Inhibition of wild type human Aurora kinase A by high throughput ATP-[33P] radiolabeled assay

[16] = target: Mitogen-activated protein kinase kinase kinase 10 (Homo sapiens, UniProt Q02779)
Description: Inhibition of MLK2 (unknown origin)

T1 sequence (P00519 whole entry): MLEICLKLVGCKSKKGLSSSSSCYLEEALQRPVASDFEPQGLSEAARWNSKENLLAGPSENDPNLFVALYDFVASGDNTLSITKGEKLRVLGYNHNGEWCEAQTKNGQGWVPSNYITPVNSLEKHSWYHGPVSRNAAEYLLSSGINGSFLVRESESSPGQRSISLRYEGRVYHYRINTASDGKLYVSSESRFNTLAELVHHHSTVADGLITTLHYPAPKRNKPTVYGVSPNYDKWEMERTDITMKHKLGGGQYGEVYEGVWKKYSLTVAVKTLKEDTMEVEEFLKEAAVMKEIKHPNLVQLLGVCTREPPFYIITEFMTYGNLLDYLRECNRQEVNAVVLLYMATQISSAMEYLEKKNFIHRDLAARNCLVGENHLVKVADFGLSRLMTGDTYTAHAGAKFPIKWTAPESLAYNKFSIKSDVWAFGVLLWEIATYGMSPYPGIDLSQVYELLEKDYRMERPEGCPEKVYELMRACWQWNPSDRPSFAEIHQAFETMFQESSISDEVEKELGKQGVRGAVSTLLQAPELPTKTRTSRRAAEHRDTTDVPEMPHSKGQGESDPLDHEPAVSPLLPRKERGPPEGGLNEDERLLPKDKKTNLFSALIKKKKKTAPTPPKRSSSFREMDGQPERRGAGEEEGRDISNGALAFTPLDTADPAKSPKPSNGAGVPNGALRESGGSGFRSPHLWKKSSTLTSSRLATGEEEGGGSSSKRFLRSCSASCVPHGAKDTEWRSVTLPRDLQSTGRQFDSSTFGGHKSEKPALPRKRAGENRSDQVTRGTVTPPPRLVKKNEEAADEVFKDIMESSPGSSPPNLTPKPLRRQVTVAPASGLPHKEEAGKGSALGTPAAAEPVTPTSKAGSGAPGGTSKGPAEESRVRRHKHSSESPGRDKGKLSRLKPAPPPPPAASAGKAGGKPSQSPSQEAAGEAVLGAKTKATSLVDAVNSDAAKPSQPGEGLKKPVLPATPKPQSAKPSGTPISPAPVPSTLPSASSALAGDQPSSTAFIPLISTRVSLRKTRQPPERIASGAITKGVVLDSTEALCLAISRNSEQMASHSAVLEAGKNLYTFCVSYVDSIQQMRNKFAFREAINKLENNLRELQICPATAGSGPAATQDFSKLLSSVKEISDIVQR

In the case of `CN1CCN(Cc2ccc(-c3cnc4[nH]cc(-c5ccc6[nH]ccc6c5)c4c3)cc2)CC1`, the inhibition [1] was over 90%, the inhibition [2] was “inactive” and the inhibition [3] was “Active”. The inhibition [4] was “inactive”, the inhibition [5] was “inactive” and the inhibition [6] was 70%. The inhibition [7] was over 90%, the inhibition [8] was over 90% and the pIC50 [9] was 5.49. The pIC50 [10] was 5.48, the pIC50 [11] was 6.66 and the pIC50 [12] was 7.07. For the same compound, the pIC50 [13] was 6.14, the pIC50 [14] was 6.18 and the pIC50 [15] was 6.75. It also gave a pIC50 (Aurora kinase A) of 6.97 and a pIC50 [16] of 7.38.
